Values quoted from earlier work as cited in PMC2728785 (Biomaterials, 2009).

Legend:
[1] = versus unmodified bovine hemoglobin

Compound: CC(C)(S)CN [1-amino-2-methyl-2-propanethiol]
- degradation rate relative to the less hindered cysteamine linker (disulfide bond prepared from the sterically hindered linker): about 100 times slower

Compound: NCCS [cysteamine linker, cysteamine]
- t1/2 of GSH-dependent disulfide degradation (disulfide bond prepared from the linker): 3 min

Compound: 12 copies of a 5 kDa PEG conjugated to bovine hemoglobin: PEGylated bovine hemoglobin from the literature
- increase of blood half-life [1]: 14 factor
- increase of systemic availability [1]: 8 factor
